The structures appear in SMILES notation. pIC50: −log10 of the molar value.

In experiment [1] the test system is Human platelet cyclic AMP phosphodiesterase. Kind of experiment: Cyclic AMP phosphodiesterase assay. The following applies: 1 μM cyclic AMP as substrate; human platelet enzyme; read-out: IC50 value, inhibition of cyclic AMP phosphodiesterase. It counts as biochemical. The method, then: (§1) Cyclic AMP phosphodiesterase activity and inhibition of platelet aggregation were determined as follows.
Cyclic AMP phosphodiesterase assay
The inhibition of cyclic AMP phosphodiesterase activity by the subject compounds was assayed by the method of Filburn and Karn, Analyt. Biochem., 52: 505-516 (1973), using 1 μM cyclic AMP as the substrate. Human platelet cyclic AMP phosphodiesterase was obtained from human donors. Platelets were isolated and washed by centrifugation, the membranes ruptured by a sequential freeze-thaw procedure and hypotonic lysis and the soluble enzyme isolated by high speed centrifugation. The enzyme was stored in aliquots at -20° C.

The next experiment concerns human platelets. Kind of experiment: Platelet aggregation (turbidimetric). The following applies: platelet rich plasma. Type of experiment: cell-based. As for the experimental part: as §1
Blood was collected into evacuated tubes containing sodium citrate (30 mM). Platelet rich plasma was collected after centrifugation. Aggregation was followed by a turbidimetric procedure described by G. V. R. Born, J. Physiol., Lond., 162: 67P-68P (1962).

The subject of the next experiment is Mongrel dogs. Kind of experiment: Inotropic activity in anesthetized mongrel dogs. Type of experiment: in vivo. The following applies: intravenous, anesthetized dog. The method, then:
The inotropic activity of these compounds was determined as follows: Mongrel dogs were anesthetized i.v. with 35 mg/Kg sodium pentobarbital and supplemented as needed. Blood pressure was measured with a Statham pressure transducer via a cannula inserted from a femoral artery into the abdominal aorta. Heart rate was recorded by a cardiotachometer from a lead II electrocardiogram. Right ventricular contractile force was recorded from a Walton-Brodie strain gauge sutured to the right ventricle following a midsternal thoracotomy. A Harvard respirator was used to ventilate the dogs with room air through an endotracheal tube. The dog was bilaterally vagotomized. Following a midline laparotomy, a cannula was sutured into the duodenum for intraduodenal administration of test compound. A femoral vein was cannulated for administration of isoproterenol. All data were recorded on a Beckman R611 Dynograph.
To assess the responsiveness of each dog, isoproterenol was given i.v. at half-log interval doses from 0.007 to 2.1 or 6.67 μg/Kg. The test compound, N-cyclohexyl-N-methyl-4-(2-oxo-3-methylene-1,2,3,5-tetrahydroimidazo-[2,1- b]quinazolin-7-yl)oxybutanamide, was then administered intravenously at dose levels from 0.1 to 1.0 mg/Kg.

`C=c1c(=O)[nH]c2n1Cc1cc(OCCCC(=O)N(C)C3CCCCC3)ccc1N=2` [N-cyclohexyl-N-methyl-4-(2-oxo-3-methylene-1,2,3,5-tetrahydroimidazo[2,1-b]quinazolin-7-yl)oxybutanamide]: the negative-log IC50 (pIC50) – broadly, the IC50 on a negative log10 scale, so that one unit is a factor of ten – in experiment [1] is 8.57; in the experiment on human platelets, 6.82. In addition, the “Peak Effects as % of Max. Isoproterenol, Blood Pressure” value in the experiment on Mongrel dogs (0.1 mg/kg) is reported as 42 % of Max. Isoproterenol; with Mongrel dogs (0.316 mg/kg) it was 58 % of Max. Isoproterenol; in the experiment on Mongrel dogs (1.0 mg/kg), 65 % of Max. Isoproterenol. For the same compound, the “Peak Effects as % of Max. Isoproterenol, Heart Rate” value is given as 18 % of Max. Isoproterenol in the experiment with Mongrel dogs (0.1 mg/kg), 28 % of Max. Isoproterenol with Mongrel dogs (0.316 mg/kg) and 34 % of Max. Isoproterenol with Mongrel dogs (1.0 mg/kg). Also, the “Peak Effects as % of Max. Isoproterenol, Rt. Ventricular Contractile Force” value with Mongrel dogs (0.1 mg/kg) is 24 % of Max. Isoproterenol; in the experiment with Mongrel dogs (0.316 mg/kg), 52 % of Max. Isoproterenol; in the experiment on Mongrel dogs (1.0 mg/kg), 62 % of Max. Isoproterenol.

The values above are taken from US4670434A, “(2-oxo-3-methylene-1,2,3,5-tetrahydroimidazo[2,1-b]q uinazolinyl)oxyalkylamides useful as cyclic AMP phosphodiesterase inhibitors” (Syntex (U.S.A.) Inc., priority 1985, dated 1987).
